In ChEMBL document CHEMBL4673353, “Switching a Xanthine Oxidase Inhibitor to a Dual-Target Antagonist of P2Y and P2Y as an Oral Antiplatelet Agent with a Wider Therapeutic Window in Rats than Ticagrelor” (J Med Chem, 2020):
The source made the active and inactive calls. No cut-off for these calls is given here.

Columns and labels:
[1] = Metabolic stability of compound in rat liver microsomes assessed as intrinsic clearance per mg protein at 0.2 uM in presence of NADPH measured up to 90 mins by LC-MS/MS analysis; assay type: ADME, Microsome; details: 1.5 h
[2] = Metabolic stability of compound in human liver microsomes assessed as intrinsic clearance per mg protein at 0.2 uM in presence of NADPH measured up to 90 mins by LC-MS/MS analysis; assay type: ADME, Microsome; details: 1.5 h
[3] = Drug metabolism in rat liver microsomes assessed as 1-[(4-Cyanobenzyl)oxy]-2-(3-cyanophenyl)-4-methyl-1H-imidazole-5-carboxylic acid formation at 0.2 uM in presence of NADPH measured up to 90 mins by LC-MS/MS analysis; assay type: ADME, Microsome; details: 1.5 h
[4] = Drug metabolism in human liver microsome assessed as 1-[(4-Cyanobenzyl)oxy]-2-(3-cyanophenyl)-4-methyl-1H-imidazole-5-carboxylic acid formation at 0.2 uM in presence of NADPH measured up to 90 mins by LC-MS/MS analysis; assay type: ADME; details: microsomes, 1.5 h
[5] = Acute toxicity in Kunming mouse assessed as death at 2000 mg/kg, ig administered as single dose monitored every day up to14 days; assay type: organism-based; details: in vivo, po, 336 h, time 14 day
[6] = Acute toxicity in Kunming mouse assessed as increase in body weight at 2000 mg/kg, ig administered as single dose monitored every day up to14 days; assay type: organism-based; details: in vivo, po, 336 h, time 14 day
[7] = Acute toxicity in Kunming mouse assessed as behavioral abnormalities at 2000 mg/kg, ig administered as single dose monitored every day up to14 days; assay type: organism-based; details: in vivo, po, 336 h, time 14 day
Rattus norvegicus = test: Antithrombotic activity in FeCl3-induced Sprague-Dawley rat model of arterial thrombosis assessed as reduction in thrombus weight administered orally once daily for 7 days and measured 2 hrs post last dose; assay type: functional; details: dose 5-20 mg/kg
[8] = Toxicity in Sprague-Dawley rat model of tail-snip bleeding assessed as bleeding time at 10 mg/kg, po administered via gavage as single dose measured within 2 hrs post tail snip (reference value: 17.69 min); assay type: organism-based; details: in vivo
[9] = Toxicity in Sprague-Dawley rat model of tail snip bleeding assessed as bleeding weight at 10 mg/kg, po administered via gavage as single dose measured within 2 hrs post tail snip(reference value: 0.08 g); assay type: organism-based; details: in vivo
[10] = Toxicity in Sprague-Dawley rat model of tail-snip bleeding assessed as increase in bleeding time at 10 mg/kg, po administered via gavage as single dose measured within 2 hrs post tail snip relative to control; assay type: organism-based; details: in vivo
[11] = Toxicity in Sprague-Dawley rat model of tail snip bleeding assessed as increase in bleeding weight at 10 mg/kg, po administered via gavage as single dose measured within 2 hrs post tail snip relative to control; assay type: organism-based; details: in vivo
Cytochrome P450 3A4 = Cytochrome P450 3A4 (Homo sapiens, UniProt P08684); test: Inhibition of CYP3A4 in human liver microsomes using testosterone as substrate preincubated for 5 mins followed by NADPH generating system addition and measured after 120 mins by LC-MS/MS; assay type: ADME
Sequence of Cytochrome P450 3A4 (P08684 whole entry): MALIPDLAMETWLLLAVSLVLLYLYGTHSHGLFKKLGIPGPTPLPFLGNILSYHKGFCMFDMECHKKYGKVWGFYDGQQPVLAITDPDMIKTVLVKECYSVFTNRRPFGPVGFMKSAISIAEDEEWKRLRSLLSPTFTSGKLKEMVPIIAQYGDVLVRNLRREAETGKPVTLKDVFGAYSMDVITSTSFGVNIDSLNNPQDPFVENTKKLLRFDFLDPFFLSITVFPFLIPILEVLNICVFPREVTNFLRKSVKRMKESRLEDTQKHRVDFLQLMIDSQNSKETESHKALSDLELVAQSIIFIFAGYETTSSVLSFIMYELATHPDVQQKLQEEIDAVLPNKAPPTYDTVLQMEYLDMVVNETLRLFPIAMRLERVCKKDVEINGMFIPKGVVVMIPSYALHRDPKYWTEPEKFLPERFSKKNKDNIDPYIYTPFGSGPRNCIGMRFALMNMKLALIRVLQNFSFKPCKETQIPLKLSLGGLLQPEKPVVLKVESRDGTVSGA

Cytochrome P450 2E1 = Cytochrome P450 2E1 (Homo sapiens, UniProt P05181); test: Inhibition of CYP2E1 in human liver microsomes using chlorzoxazone as substrate preincubated for 5 mins followed by NADPH generating system addition and measured after 120 mins by LC-MS/MS; assay type: ADME
Sequence of Cytochrome P450 2E1 (P05181 whole entry): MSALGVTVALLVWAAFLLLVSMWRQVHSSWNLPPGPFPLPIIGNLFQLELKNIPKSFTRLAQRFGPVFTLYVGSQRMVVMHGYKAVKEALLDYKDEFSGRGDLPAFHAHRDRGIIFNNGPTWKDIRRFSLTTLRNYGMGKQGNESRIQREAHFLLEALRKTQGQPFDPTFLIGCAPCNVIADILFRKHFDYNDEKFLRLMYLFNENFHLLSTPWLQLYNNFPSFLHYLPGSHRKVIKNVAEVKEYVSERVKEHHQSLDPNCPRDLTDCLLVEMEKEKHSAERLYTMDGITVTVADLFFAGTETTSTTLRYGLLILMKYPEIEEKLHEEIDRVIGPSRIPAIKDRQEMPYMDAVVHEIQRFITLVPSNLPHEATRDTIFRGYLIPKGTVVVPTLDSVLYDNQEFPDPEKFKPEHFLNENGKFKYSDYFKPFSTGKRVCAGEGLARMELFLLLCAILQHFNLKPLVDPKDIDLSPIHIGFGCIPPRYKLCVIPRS

Cytochrome P450 2D6 = Cytochrome P450 2D6 (Homo sapiens, UniProt P10635); test: Inhibition of CYP2D6 in human liver microsomes using dextromethorphan as substrate preincubated for 5 mins followed by NADPH generating system addition and measured after 120 mins by LC-MS/MS; assay type: ADME
Sequence of Cytochrome P450 2D6 (P10635 whole entry): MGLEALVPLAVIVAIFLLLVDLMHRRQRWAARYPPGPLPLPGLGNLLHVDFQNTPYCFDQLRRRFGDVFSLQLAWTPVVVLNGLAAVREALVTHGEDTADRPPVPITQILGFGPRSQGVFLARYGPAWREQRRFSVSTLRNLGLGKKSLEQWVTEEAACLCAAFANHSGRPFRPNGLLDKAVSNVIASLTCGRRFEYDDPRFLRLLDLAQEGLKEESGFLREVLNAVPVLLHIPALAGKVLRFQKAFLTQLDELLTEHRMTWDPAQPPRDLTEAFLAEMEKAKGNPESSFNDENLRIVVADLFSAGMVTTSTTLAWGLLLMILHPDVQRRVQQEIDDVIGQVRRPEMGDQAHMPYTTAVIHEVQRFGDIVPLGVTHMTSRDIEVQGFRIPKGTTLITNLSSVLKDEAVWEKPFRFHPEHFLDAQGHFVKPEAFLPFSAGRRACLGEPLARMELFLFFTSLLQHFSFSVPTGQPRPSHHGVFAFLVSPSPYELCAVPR

Cytochrome P450 2C19 = Cytochrome P450 2C19 (Homo sapiens, UniProt P33261); test: Inhibition of CYP2C19 in human liver microsomes using S-mephenytoin as substrate preincubated for 5 mins followed by NADPH generating system addition and measured after 120 mins by LC-MS/MS; assay type: ADME
Sequence of Cytochrome P450 2C19 (P33261 whole entry): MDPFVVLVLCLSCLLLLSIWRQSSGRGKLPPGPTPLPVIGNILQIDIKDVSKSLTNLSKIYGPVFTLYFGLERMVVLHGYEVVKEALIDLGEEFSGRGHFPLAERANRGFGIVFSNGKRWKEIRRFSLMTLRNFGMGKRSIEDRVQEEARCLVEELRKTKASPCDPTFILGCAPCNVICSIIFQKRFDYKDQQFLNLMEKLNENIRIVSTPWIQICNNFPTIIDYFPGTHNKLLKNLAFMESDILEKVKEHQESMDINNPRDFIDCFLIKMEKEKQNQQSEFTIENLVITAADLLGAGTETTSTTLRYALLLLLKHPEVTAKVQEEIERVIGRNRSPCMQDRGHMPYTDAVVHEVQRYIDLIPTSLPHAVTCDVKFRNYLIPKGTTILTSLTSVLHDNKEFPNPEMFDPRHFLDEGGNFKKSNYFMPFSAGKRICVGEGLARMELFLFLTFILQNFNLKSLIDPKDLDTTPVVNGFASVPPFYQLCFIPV

Cytochrome P450 2C9 = Cytochrome P450 2C9 (Homo sapiens, UniProt P11712); test: Inhibition of CYP2C9 in human liver microsomes using tolbutamide as substrate preincubated for 5 mins followed by NADPH generating system addition and measured after 120 mins by LC-MS/MS; assay type: ADME
Sequence of Cytochrome P450 2C9 (P11712 whole entry): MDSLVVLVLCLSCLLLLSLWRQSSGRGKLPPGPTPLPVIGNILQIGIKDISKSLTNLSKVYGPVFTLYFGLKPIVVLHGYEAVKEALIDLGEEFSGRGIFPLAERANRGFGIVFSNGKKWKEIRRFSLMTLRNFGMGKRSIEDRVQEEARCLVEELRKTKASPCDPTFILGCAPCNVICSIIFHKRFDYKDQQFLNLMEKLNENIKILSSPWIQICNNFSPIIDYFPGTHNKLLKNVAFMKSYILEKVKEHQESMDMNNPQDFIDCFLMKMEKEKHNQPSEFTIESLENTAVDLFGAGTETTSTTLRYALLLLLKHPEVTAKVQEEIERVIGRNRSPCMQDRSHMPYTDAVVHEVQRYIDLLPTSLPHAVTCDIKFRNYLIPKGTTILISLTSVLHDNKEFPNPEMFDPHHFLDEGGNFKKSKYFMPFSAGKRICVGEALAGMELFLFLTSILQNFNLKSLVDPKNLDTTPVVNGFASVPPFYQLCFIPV

Cytochrome P450 1A2 = target: T1, Cytochrome P450 1A2 (Homo sapiens, UniProt P05177); test: Inhibition of CYP1A2 in human liver microsomes using phenacetin as substrate preincubated for 5 mins followed by NADPH generating system addition and measured after 120 mins by LC-MS/MS; assay type: ADME
T1 sequence (P05177 whole entry): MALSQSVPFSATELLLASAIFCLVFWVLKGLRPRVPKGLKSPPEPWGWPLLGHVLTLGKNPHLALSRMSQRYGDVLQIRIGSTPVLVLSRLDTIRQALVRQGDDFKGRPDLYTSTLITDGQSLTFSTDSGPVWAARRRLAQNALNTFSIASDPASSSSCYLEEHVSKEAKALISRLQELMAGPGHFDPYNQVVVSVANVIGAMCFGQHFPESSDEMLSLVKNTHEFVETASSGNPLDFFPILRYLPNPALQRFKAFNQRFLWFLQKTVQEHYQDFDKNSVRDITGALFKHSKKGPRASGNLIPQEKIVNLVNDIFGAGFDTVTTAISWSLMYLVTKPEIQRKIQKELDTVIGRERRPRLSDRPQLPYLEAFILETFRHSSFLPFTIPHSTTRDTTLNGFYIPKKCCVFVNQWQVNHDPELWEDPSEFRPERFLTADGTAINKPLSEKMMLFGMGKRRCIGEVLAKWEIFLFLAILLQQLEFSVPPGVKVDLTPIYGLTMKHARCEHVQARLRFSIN

[12] = Antagonist activity at P2Y1 in rabbit platelet-rich plasma assessed as inhibition of ADP-induced increase in intracellular Ca2+ concentration preincubated for 5 mins followed by ADP addition and measured for 3 mins by fluo4 dye-based fluorescence assay; assay type: cell-free; details: Oryctolagus cuniculus
P2Y purinoceptor 12 [13] = target: T2, P2Y purinoceptor 12 (Homo sapiens, UniProt Q9H244); test: Antagonist activity at P2Y12 in human whole blood assessed as suppression of ADP-induced decrease in PGE1-induced VASP phosphorylation measured after 10 mins by immunostaining based flow cytometric analysis; assay type: tissue-based
T2 sequence (Q9H244 whole entry): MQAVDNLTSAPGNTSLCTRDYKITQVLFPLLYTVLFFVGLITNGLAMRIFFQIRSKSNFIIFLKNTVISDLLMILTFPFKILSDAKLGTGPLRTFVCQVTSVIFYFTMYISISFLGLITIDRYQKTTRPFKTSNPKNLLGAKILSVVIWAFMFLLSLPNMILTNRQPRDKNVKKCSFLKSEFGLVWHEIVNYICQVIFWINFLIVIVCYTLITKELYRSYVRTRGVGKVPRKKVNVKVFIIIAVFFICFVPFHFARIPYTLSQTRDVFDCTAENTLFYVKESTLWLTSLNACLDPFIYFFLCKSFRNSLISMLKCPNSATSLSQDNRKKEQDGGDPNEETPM

P2Y purinoceptor 12 [14] = target: T2, P2Y purinoceptor 12; test: Agonist activity at P2Y12 in human whole blood assessed as decrease in PGE1-induced VASP phosphorylation at 100 to 200 uM measured after 10 mins by immunostaining based flow cytometric analysis; assay type: tissue-based; details: dose 100-200 µM
[15] = Cmax in male Sprague-Dawley rat at 10 mg/kg, iv administered as single dose by LC-MS analysis; assay type: ADME, organism-based; design: route intravenous, dose 10 mg/kg; details: in vivo
[16] = Tmax in male Sprague-Dawley rat at 10 mg/kg, iv administered as single dose by LC-MS analysis; assay type: ADME, organism-based; details: in vivo
[17] = AUC (0 to infinity) in male Sprague-Dawley rat at 10 mg/kg, iv administered as single dose by LC-MS analysis; assay type: ADME, organism-based; design: time infinity, route intravenous, dose 10 mg/kg; details: in vivo
[18] = Elimination half-life in male Sprague-Dawley rat at 10 mg/kg, iv administered as single dose by LC-MS analysis; assay type: ADME, organism-based; details: in vivo, read-out: beta t1/2 (converted)
[19] = Clearance in male Sprague-Dawley rat at 10 mg/kg, iv administered as single dose by LC-MS analysis; assay type: ADME, organism-based; details: in vivo

With CCOC(=O)c1c(C)nc(-c2cccc(C#N)c2)n1OCc1ccc(C#N)cc1 the CLH [1] was 0.06 mL/min, the CLH [2] was 0.011 mL/min and the Drug metabolism [3] was “Metabolite_Detected”. The Drug metabolism [4] was “Metabolite_Detected”, the Activity [5] was “Non-Toxic” and the Activity [6] was “Non-Toxic”. For the same molecule, the Activity [7] was “Non-Toxic”, the Activity (Rattus norvegicus; time 7.0 day) was “Dose-dependent effect” and the ED50 (Rattus norvegicus; po, 168 h, time 7 day) was 20.8 mg/kg. The Time [8] was 33.94 min, the Activity [9] was 0.4 g and the “fold change (FC)” value [10] was 1.92. The “fold change (FC)” value [11] was 5.

With Cc1nc(-c2cccc(C#N)c2)n(OCc2ccc(C#N)cc2)c1C(=O)O the IC50 (Cytochrome P450 3A4) was greater than 10 µM, the IC50 (Cytochrome P450 2E1) was greater than 10 µM and the IC50 (Cytochrome P450 2D6) was greater than 10 µM. For the same molecule, the IC50 (Cytochrome P450 2C19) was greater than 10 µM, the IC50 (Cytochrome P450 2C9) was greater than 10 µM and the IC50 (Cytochrome P450 1A2) was greater than 10 µM. For the same molecule, the IC50 [12] was 2.59 µM, the IC50 (P2Y purinoceptor 12 [13]) was 149 µM and the Activity (P2Y purinoceptor 12 [14]) was “inactive”. For the same molecule, the Cmax [15] was 11200 ng/mL, the Tmax [16] was 8.4 min and the AUC(0-inf) [17] was 3500 ng·h/mL. For the same molecule, the half-life [18] was 4.89 h and the clearance [19] was 50.5 mL/min/kg.
